Patent US20130296344A1, “CHROMENE DERIVATIVES AND THEIR ANALOGA AS WNT PATHWAY ANTAGONISTS” (Ruprecht-Karls-Universitat Heidelberg, priority 2010, published 2013)
Where two headings read alike, the source gives them in different places.

What was measured:
[1] = tested on: Dld1 colon carcinoma cells; test: Antiproliferative activity against Dld1 colon carcinoma cells (nuclei count); type: cell-based, human
Description: (§1) For examination of cell line-specific cytotoxicity, compounds were applied to human colorectal cancer cells (HCT116, denoted (1); SW480, denoted (2); Dld-1, denoted (3)) and human fibroblasts (HS-68, denoted (4)), cultured in Mc Coy's ((1)) and Dulbecco's Modified Eagles Medium ((2)-(4)), supplemented with 10% ((1)-(3)) and 20% ((4)) fetal calf serum and 1% penicillin/streptomycin. Cells were grown in T75 flasks at 37° C., 5% CO2 and trypsinized when 60-80% confluent by adding 2 ml of 0.25% Trypsin-EDTA (ethylenediaminetetraacetic acid) solution. Cells were then re-suspended into culture medium yielding approx. 750 cells, suspended in 45 microl medium, were plated into each well of a black 384-well plate for fluorescence imaging experiments. 24-36 hr later 5 microl compound solution (100 microM compound dissolved in ultra pure water containing 1% DMSO (dimethylsulfoxide)), were added to achieve a final concentration of 10 microM and were incubated for at least 72 hr. Compound incubation was terminated by (a) fixation and (b) permeabilisation of cells, followed by (c) fluorescence labeling of cell nuclei for cytometric quantification or by immunocytochemistry for microscopic evaluation of cell morphology. […] Solutions were incubated for 15 (a,b) and 30 min (c) in the dark at room temperature. Cells were washed twice between each step with 30 microl PBS. The assay system was miniaturized and adapted to automated workflow using liquid-handling robotics.
(§2) Cell line-specific cytotoxicity was quantified by counting the number of Hoechst labeled nuclei per well of a 384-well plate using a plate cytometer. Data obtained with the cytometer was analysed using standard data analysis software.
(§3) The examination of the antiproliferative activity against human colon carcinoma cells Dld1, HCT116 and SW480 was carried out in analogy to the procedure carried out for HS68. The respective compound applied in increasing concentrations yielding final concentrations per well of 5 nM-90 microM.

[2] = Cytotoxicity in Hek293T (CellTiterGlo); type: cell-based; settings: human, Hek293T cells, 24 h after compound addition, 5 nM-100 microM, read-out: Hek293T IC50 (cytotoxic activity)
Description: (§4) For examination of cytotoxicity in these cancer cell lines the commercial available CellTiterGlo® Reagent (Promega, USA) was used according to the manufactor. Compounds were applied to Hek293T (denoted (a)) or HepG2 (denoted (b)), cultured in Dulbecco's Modified Eagles Medium, supplemented with 10% fetal calf serum and 1% penicillin/streptomycin. Cells were grown in T75 flasks at 37° C., 5% CO2 and trypsinized when 60-80% confluent by adding 2 ml of 0.25% Trypsin-EDTA solution. Cells were then re-suspended into culture medium yielding approx. 4000 cells (a) or 4500 cells (b), suspended in 30 microl medium. 48 h after cell seeding, compounds were added to yield the desired final concentrations. 24 h after compound addition cytotoxicity was evaluated. For this purpose the media was removed and CellTiterGlo® was added according to the manufactors manual. In this assay the luciferase emission readout is directly correlated with the cellular amount of ATP, low luciferase emission thus is reflecting cytotoxicity of a compound.

[3] = tested on: Wnt pathway (Wnt1/Frzd8); test: Wnt signaling pathway reporter gene assay (6xTCF-luciferase, Wnt1/Frizzled 8/LRP6 stimulated Hek293T cells); type: cell-based, mouse (Wnt1, human (LRP6)
Source text: To screen for small-molecule modulators of the Wnt signaling pathway, a reporter gene based assay describing the modulation of the TCF4 transcription factor was used. […]

[4] = Cytotoxicity in HepG2 (CellTiterGlo); type: cell-based; settings: human, HepG2 cells, 24 h after compound addition, 5 nM-100 microM, read-out: HepG2 IC50 (cytotoxic activity)
Description: as §4

[5] = tested on: HCT116 colon carcinoma cells; test: Antiproliferative activity against HCT116 colon carcinoma cells (nuclei count); type: cell-based, human
Description: as §1, §2, §3

[6] = tested on: human fibroblasts (HS-68); test: Cell line specific cytotoxicity, normal cells HS68 (nuclei count); type: cell-based; settings: at least 72 hr incubation, Hoechst nuclei count, read-out: HS68 IC50 (influence on normal cells)
Description: as §1, §2
Identified hits were further evaluated by visual inspection of fluorescence micrographs obtained from imaging using a conventional fluorescence microscope.

[7] = tested on: SW480 colon carcinoma cells; test: Antiproliferative activity against SW480 colon carcinoma cells (nuclei count); type: cell-based; settings: Homo sapiens, 5 nM-90 microM
Description: as §1, §2, §3

[8] = Homo sapiens, DLD-1, colon carcinoma cells, 5 nM-90 microM, nuclei count, read-out: Dld1 IC50
[9] = Homo sapiens, HEK-293T, Hek293T, 6xTCF-luciferase reporter, 24 h incubation, 5 nM-100 microM, read-out: Wnt1/Frzd8 IC50 (Wnt pathway inhibitory activity)
[10] = Homo sapiens, HCT-116, colon carcinoma cells, 5 nM-90 microM, nuclei count, read-out: HCT116 IC50
[11] = Table 7, racemate vs enantiomers, procedure of example 56, read-out: IC50 against colon cancer cell lines DLDl
[12] = Table 7, racemate vs enantiomers, procedure of example 54, read-out: IC50 against Wnt-Pathway
[13] = Table 7, racemate vs enantiomers, procedure of example 56, read-out: IC50 against colon cancer cell lines HCT 116
[14] = Homo sapiens, HEK-293T, 24 h, Hek293T, 6xTCF-luciferase reporter, 24 h incubation, 5 nM-100 microM, read-out: Wnt1/Frzd8 IC50 (Wnt pathway inhibitory activity)

SMILES	IC50 ([1]; Homo sapiens, DLD-1, Table 7, racemate vs enantiomers, procedure of example 56, read-out: IC50 against colon cancer cell lines DLDl)	IC50 [1, 8]	IC50 at 24 h [2]	IC50 [3, 9]	IC50 ([3]; Homo sapiens, HEK-293T, Table 7, racemate vs enantiomers, procedure of example 54, read-out: IC50 against Wnt-Pathway)	IC50 at 24 h [4]	IC50 ([5]; Homo sapiens, HCT-116, Table 7, racemate vs enantiomers, procedure of example 56, read-out: IC50 against colon cancer cell lines HCT 116)	IC50 [5, 10]	IC50 [1, 11]	IC50 [3, 12]	IC50 [5, 13]	IC50 [6]	IC50 [7]	IC50 [3, 14]
COc1cc(C2C(C#N)=C(N)Oc3c2ccc2ccc(N)nc32)cc(Br)c1OC (racemic) [(20), 3,6-Diamino-1-(3-bromo-4,5-dimethoxy-phenyl)-1H-4-oxa-5-aza-phenanthrene-2-carbonitrile]	10 nM	14 nM	> 90 µM	6 nM	5 nM	37 µM	5 nM	15 nM						
COc1cc(C2C(C#N)=C(N)Oc3c2ccc2ccc(N)nc32)cc(Br)c1OC (single isomer, unassigned) [(20)-1, 3,6-Diamino-1-(3-bromo-4,5-dimethoxy-phenyl)-1H-4-oxa-5-aza-phenanthrene-2-carbonitrile]									< 5 nM	< 5 nM	< 5 nM			
COc1cc(C2C(C#N)=C(N)Oc3c2ccc2ccc(N)nc32)cc(Br)c1OC (single isomer, unassigned) [(20)-2, 3,6-Diamino-1-(3-bromo-4,5-dimethoxy-phenyl)-1H-4-oxa-5-aza-phenanthrene-2-carbonitrile]									356 nM	330 nM	354 nM			
COc1cc(C2C(C#N)=C(N)Oc3c2ccc2ccccc32)cc(Br)c1OC (stereo not drawn) [(1), 2-Amino-4-(3-bromo-4,5-dimethoxy-phenyl)-4H-benzo[h]chromene-3-carbonitrile]		38 nM	> 90 µM	46 nM		> 90 µM		49 nM				0.087 µM	0.056 µM	
C=CCOc1c(Br)cc(C2C(C(=O)OCC)=C(N)Oc3c2ccc2ccccc32)cc1OC (stereo not drawn) [(4), 4-(4-Allyloxy-3-bromo-5-methoxy-phenyl)-2-amino-4H-benzo[h]chromene-3-carboxylic acid ethyl ester]		171 nM	> 90 µM			> 90 µM		146 nM				0.215 µM	0.332 µM	86 nM
CCOC(=O)C1=C(N)Oc2c(ccc3ccccc23)C1c1cc(Br)c(OC)c(OC)c1 (stereo not drawn) [(6), 2-Amino-4-(3-bromo-4,5-dimethoxy-phenyl)-4H-benzo[h]chromene-3-carboxylic acid ethyl ester]		3820 nM	> 90 µM			> 90 µM		8600 nM				> 90 µM	5.96 µM	855 nM
N#CC1=C(N)Oc2c(ccc3ccccc23)C1c1cc(F)c(F)c(F)c1 (stereo not drawn) [(7), 2-Amino-4-(3,4,5-trifluoro-phenyl)-4H-benzo[h]chromene-3-carbonitrile]		474 nM	> 90 µM	316 nM		> 90 µM		922 nM				> 90 µM	2.86 µM	
COc1cc(C2C(C#N)=C(N)Oc3c2ccc2ccc(C)nc32)cc(Br)c1OC (stereo not drawn) [(16), 3-Amino-1-(3-bromo-4,5-dimethoxy-phenyl)-6-methyl-1H-4-oxa-5-aza-phenanthrene-2-carbonitrile]		2900 nM	> 90 µM	1130 nM		> 90 µM		3340 nM				4.95 µM	3.16 µM	
COc1cc(C2C(C#N)=C(N)Oc3c2c(O)nc2ccccc32)cc(Br)c1OC (stereo not drawn) [(17), 2-Amino-4-(3-bromo-4,5-dimethoxy-phenyl)-5-hydroxy-4H-pyrano[3,2-c]quinoline-3-carbonitrile]		643 nM	> 90 µM	20 nM		> 90 µM		305 nM					0.577 µM	
COc1cc(C2C(C#N)=C(N)Oc3c2ccc2ncccc32)cc(Br)c1OC (stereo not drawn) [(18), 6-Amino-8-(3-bromo-4,5-dimethoxy-phenyl)-8H-5-oxa-1-aza-phenanthrene-7-carbonitrile]		185 nM	> 90 µM	33 nM		> 90 µM		331 nM				2.77 µM	19.7 µM	
COc1cc(C2C(C#N)=C(N)Oc3c2ccc2ccc(O)nc32)cc(Br)c1OC (stereo not drawn) [(19), 3-Amino-1-(3-bromo-4,5-dimethoxy-phenyl)-6-hydroxy-1H-4-oxa-5-aza-phenanthrene-2-carbonitrile]		21 nM	> 90 µM	3 nM		> 90 µM		17 nM						
N#CC1=C(N)Oc2cc3ccccc3cc2C1c1cc(F)c(F)c(F)c1 (stereo not drawn) [(28), 2-amino-4-(3,4,5-trifluoro-phenyl)-4H-benzo[g]chromene-3-carbonitrile]		22000 nM	> 90 µM	2400 nM		31.7 µM		30300 nM				> 90 µM	53.6 µM	
N#CC1=C(N)Oc2cc3ccccc3cc2C1c1cc(F)c(N2CCCCC2)c(F)c1 (stereo not drawn) [(29), 2-amino-4-(3,5-difluoro-4-piperidin-1-yl-phenyl)-4H-benzo[g]chromene-3-carbonitrile]		> 90000 nM	> 90 µM	6480 nM		42.5 µM		> 90000 nM				> 90 µM	38.5 µM	
COc1cc(C2C(C#N)=C(N)Oc3cc4ccccc4cc32)cc(Br)c1OC (stereo not drawn) [(30), 2-Amino-4-(3-bromo-4,5-dimethoxy-phenyl)-4H-benzo[g]chromene-3-carbonitrile]		8980 nM	> 90 µM	697 nM		> 90 µM		2900 nM				5.15 µM	7.6 µM	
COc1cc(C2C(C#N)=C(N(C)C)Oc3cc4ccccc4cc32)cc(Br)c1OC (stereo not drawn) [(31), 2-Dimethylamino-4-(3-bromo-4,5-dimethoxy-phenyl)-4H-benzo[g]chromene-3-carbonitrile]		4560 nM	> 90 µM			> 90 µM		10000 nM				> 90 µM	12 µM	1960 nM
N#CC1=C(N)Oc2cc3c(cc2C1c1cc(F)c(F)c(F)c1)OCO3 (stereo not drawn) [(39), 6-Amino-8-(3,4,5-trifluoro-phenyl)-8H-[1,3]dioxolo[4,5-g]chromene-7-carbonitrile]		1080 nM	> 90 µM	1360 nM		> 90 µM		666 nM					2.69 µM	
CCOC(=O)C1=C(N)Oc2cc3c(cc2C1c1cc(F)c(F)c(F)c1)OCO3 (stereo not drawn) [(40), 6-Amino-8-(3,4,5-trifluoro-phenyl)-8H-[1,3]dioxolo[4,5-g]chromene-7-carboxylic acid ethyl ester]		15700 nM	> 90 µM			> 90 µM		> 90000 nM				> 90 µM	6.38 µM	3420 nM
